Data published in the supplement of paper PMC10307832.

What was measured:
Assay in all cases: relative viability (nuclei count vs DMSO), 5 days (fraction); higher = more cells survive
Everolimus + Decitabine = compound: CO[C@H]1C[C@@H]2CC[C@@H](C)[C@@](O)(O2)C(=O)C(=O)N2CCCC[C@H]2C(=O)O[C@H]([C@H](C)C[C@@H]2CC[C@@H](OCCO)[C@H](OC)C2)CC(=O)[C@H](C)/C=C(\C)[C@@H](O)[C@@H](OC)C(=O)[C@H](C)C[C@H](C)/C=C/C=C/C=C/1C [Everolimus] + Nc1ncn([C@H]2C[C@H](O)[C@@H](CO)O2)c(=O)n1 [Decitabine] (partner 2 µM)
Outline: (§1)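 Nuclei were stained with Hoechst during a one-step fixation (final 0.05% Triton X-100, 1% formaldehyde, 1 ug/ml Hoechst) carried out 5 days after dosing, then counted on 4× images. The cells, lung cancer lines in 1536-well plates, had been dosed by pin tool the day after seeding with one drug alone or a fixed anchor-drug dose plus five library-drug doses (not always all listed) in √10 steps. Relative viability is the nuclei count in treated wells divided by that in vehicle wells, and each value is the median of duplicate plates.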

Everolimus + Crizotinib = compound: CO[C@H]1C[C@@H]2CC[C@@H](C)[C@@](O)(O2)C(=O)C(=O)N2CCCC[C@H]2C(=O)O[C@H]([C@H](C)C[C@@H]2CC[C@@H](OCCO)[C@H](OC)C2)CC(=O)[C@H](C)/C=C(\C)[C@@H](O)[C@@H](OC)C(=O)[C@H](C)C[C@H](C)/C=C/C=C/C=C/1C [Everolimus] + C[C@@H](Oc1cc(-c2cnn(C3CCNCC3)c2)cnc1N)c1c(Cl)ccc(F)c1Cl [Crizotinib] (partner 1 µM)
Outline: as §1

Everolimus + Phenformin = compound: CO[C@H]1C[C@@H]2CC[C@@H](C)[C@@](O)(O2)C(=O)C(=O)N2CCCC[C@H]2C(=O)O[C@H]([C@H](C)C[C@@H]2CC[C@@H](OCCO)[C@H](OC)C2)CC(=O)[C@H](C)/C=C(\C)[C@@H](O)[C@@H](OC)C(=O)[C@H](C)C[C@H](C)/C=C/C=C/C=C/1C [Everolimus] + N=C(N)NC(=N)NCCc1ccccc1 [Phenformin] (partner 250 µM)
Outline: as §1

Everolimus + Navitoclax = compound: CO[C@H]1C[C@@H]2CC[C@@H](C)[C@@](O)(O2)C(=O)C(=O)N2CCCC[C@H]2C(=O)O[C@H]([C@H](C)C[C@@H]2CC[C@@H](OCCO)[C@H](OC)C2)CC(=O)[C@H](C)/C=C(\C)[C@@H](O)[C@@H](OC)C(=O)[C@H](C)C[C@H](C)/C=C/C=C/C=C/1C [Everolimus] + CC1(C)CCC(c2ccc(Cl)cc2)=C(CN2CCN(c3ccc(C(=O)NS(=O)(=O)c4ccc(N[C@H](CCN5CCOCC5)CSc5ccccc5)c(S(=O)(=O)C(F)(F)F)c4)cc3)CC2)C1 [Navitoclax] (partner 0.5 µM)
Outline: as §1

Cell Line	relative viability (Everolimus + Decitabine; first compound 0.01 µM)	relative viability (Everolimus + Decitabine; first compound 0.03162 µM)	relative viability (Everolimus + Decitabine; first compound 0.1 µM)	relative viability (Everolimus + Decitabine; first compound 0.3162 µM)	relative viability (Everolimus + Decitabine; first compound 1 µM)	relative viability (Everolimus + Crizotinib; first compound 0.01 µM)	relative viability (Everolimus + Crizotinib; first compound 0.03162 µM)	relative viability (Everolimus + Crizotinib; first compound 0.1 µM)	relative viability (Everolimus + Crizotinib; first compound 0.3162 µM)	relative viability (Everolimus + Crizotinib; first compound 1 µM)	relative viability (Everolimus + Phenformin; first compound 0.01 µM)	relative viability (Everolimus + Phenformin; first compound 0.03162 µM)	relative viability (Everolimus + Phenformin; first compound 0.1 µM)	relative viability (Everolimus + Phenformin; first compound 0.3162 µM)	relative viability (Everolimus + Phenformin; first compound 1 µM)	relative viability (Everolimus + Navitoclax; first compound 0.01 µM)	relative viability (Everolimus + Navitoclax; first compound 0.03162 µM)	relative viability (Everolimus + Navitoclax; first compound 0.1 µM)	relative viability (Everolimus + Navitoclax; first compound 0.3162 µM)	relative viability (Everolimus + Navitoclax; first compound 1 µM)
NCI-H647	0.16	0.157	0.101	0.0533	0.158	0.582	0.771	0.596	0.582	0.709	0.317	0.395	0.338	0.36	0.537	0.782	0.659	0.609	0.646	0.748
NCI-H727	0.73	0.594	0.591	0.642	0.617	0.47	0.443	0.553	0.49	0.496	0.462	0.457		0.485	0.368	0.263	0.211	0.179	0.231	0.208
NCI-H838	0.435	0.444	0.356	0.384	0.392	0.581	0.548	0.416	0.525	0.357	0.331	0.355	0.267	0.313	0.363	0.57	0.54	0.499	0.588	0.495
NCI-H1355	0.353	0.3	0.305	0.318	0.261	0.524	0.462	0.46	0.426	0.438	0.394	0.364	0.335	0.332	0.345	0.541	0.415	0.349	0.394	0.377
NCI-H1437	0.597	0.483	0.59	0.461	0.466	0.969	0.903	0.782	0.873	0.648	0.557	0.282	0.293	0.299	0.29	0.913	0.89	0.836	0.804	0.661
NCI-H1650	0.472	0.389	0.556	0.406	0.573	0.922	1.06	0.918	1	0.719	0.36	0.372	0.46	0.392	0.417	1.2	0.824	1.06	1.2	0.876
NCI-H1651	0.532	0.383	0.464	0.489	0.484	0.846	0.786	0.735	0.708	0.566	0.284	0.297	0.255	0.265	0.4	0.555	0.581	0.576	0.557	0.399
NCI-H1666	0.676	0.553	0.639	0.75	0.672	0.878	0.776	0.629	0.877	0.654	0.555	0.575	0.617	0.577	0.539	0.766	0.687	0.508	0.559	0.42
NCI-H1734	0.422	0.397	0.351	0.371	0.367	0.501	0.48	0.401	0.378	0.449	0.306	0.324	0.249	0.31	0.35	0.455	0.519	0.447	0.441	0.608
NCI-H1755	0.582	0.56	0.489	0.52	0.534	0.777	0.715	0.679	0.6	0.554	0.583	0.639	0.476	0.547	0.487	0.75	0.624	0.599	0.646	0.513
NCI-H1792	0.396	0.338	0.249	0.276	0.199	0.865	0.769	0.724	0.583	0.644	0.154	0.129	0.162	0.129	0.0809	0.316	0.251	0.29	0.244	0.362
NCI-H1915	0.25	0.234	0.238	0.273	0.263	0.849	0.784	0.798	0.711	0.753	0.384	0.372	0.34	0.349	0.432	0.782	0.774	0.737	0.72	0.749
NCI-H1944	0.409	0.409	0.386	0.396	0.355	0.82	0.878	0.751	0.827	0.697	0.183	0.19	0.165	0.208	0.222	0.697	0.668	0.555	0.628	0.571
NCI-H1975	0.365	0.425	0.327	0.385	0.337	0.924	0.774	0.921	0.876	0.783	0.378	0.383	0.387	0.367	0.323	1.01	0.794	0.802	0.798	0.606
